Reference: patent US10865207B2, “Compounds for imaging Tau protein aggregates” (AC IMMUNE S.A., priority 2016, dated 2020)

What was measured:
Tau = Tau (Homo sapiens, UniProt P10636); assay: Competition binding to Tau in human AD brain homogenate with 18F-labeled Tau binder; conditions: for binding affinity for Tau (in words): IC50 determined in AD brain homogenate; for high Tau binding (grade): Table 2, fluorine-19 derivatives; for high Tau binding (grade): key: −: poor; ∘: moderate; +: good; ++: very good; +++: excellent
Chain of Tau (P10636 623-708 limits assumed): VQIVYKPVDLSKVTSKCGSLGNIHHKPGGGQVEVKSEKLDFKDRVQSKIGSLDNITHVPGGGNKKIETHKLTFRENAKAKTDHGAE
Description: 20 μg of human Alzheimer disease brain homogenate was incubated with a dilution series of each test compound (1000 to 0.06 nM) in the presence of 800 Bq of ^18F-labeled Tau binder. The samples were shaken at 110 rpm for 45 min at 37° C. Samples were then filtered through GF/B 96 well filter plates and washed twice with 300 μL assay buffer (PBS containing 0.1% BSA and 2% DMSO). Thereafter, filter plates were sealed and a Fuji Film Imaging Plate (BAS-SR2025) was placed on top. The imaging plate was analyzed after overnight exposition using a Fuji Film BAS-5000. Non-specific signal was determined with samples containing ^18F-labeled Tau-reference binder in the presence of assay buffer without brain substrate and competitor. […] The unblocked ^18F-labeled Tau-binder signal was defined as total binding. IC50 values were calculated by Prism V6 (GraphPad) setting total binding to 100%.

MAO A = molecular target: T1, MAO A (Mus musculus, UniProt Q64133); assay: MAO A 18F-FEH competition assay in mouse brain homogenate; type: binding; conditions: for low MAO A binding (grade): Table 2, IC50 in mouse brain homogenate
T1 construct: from tissue; host or cells: whole mouse brain homogenate
T1 sequence (Q64133 1-526): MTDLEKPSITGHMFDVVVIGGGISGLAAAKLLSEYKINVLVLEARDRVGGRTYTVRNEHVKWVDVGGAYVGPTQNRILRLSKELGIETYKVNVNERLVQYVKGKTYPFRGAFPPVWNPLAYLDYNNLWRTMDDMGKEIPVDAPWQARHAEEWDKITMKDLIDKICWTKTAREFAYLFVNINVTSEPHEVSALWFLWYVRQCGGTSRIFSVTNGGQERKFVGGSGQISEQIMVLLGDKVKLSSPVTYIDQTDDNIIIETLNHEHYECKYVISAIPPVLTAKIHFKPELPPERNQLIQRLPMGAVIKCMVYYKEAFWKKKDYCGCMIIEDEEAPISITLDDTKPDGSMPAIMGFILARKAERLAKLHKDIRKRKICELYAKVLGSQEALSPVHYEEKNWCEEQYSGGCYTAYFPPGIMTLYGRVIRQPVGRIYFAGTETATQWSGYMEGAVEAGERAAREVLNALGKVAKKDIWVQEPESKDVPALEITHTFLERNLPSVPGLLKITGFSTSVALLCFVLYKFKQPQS

[1] = PK studies in healthy mice (dynamic PET); type: in vivo, NMRI mice; design: Good brain uptake (grade) / Mouse PK Uptake (grade): key: −: poor; ∘: moderate; +: good; ++: very good; +++: excellent; conditions: for Mouse PK Uptake (grade) / Mouse PK Washout (grade) / Mouse PK De-fluorination (grade): Table 2; for bone uptake in shoulder joint at 60 min (de-fluorination) / peak uptake in brain (tracer uptake in healthy mice after iv injection) / ratio of uptake peak/30 min (washout from healthy brain): healthy mice; for bone uptake in shoulder joint at 60 min (de-fluorination): after iv injection; for peak uptake in brain (tracer uptake in healthy mice after iv injection): PET; for ratio of uptake peak/30 min (washout from healthy brain): Table 1: ratio of uptake at 2 min and 30 min; for Good brain uptake (grade): key: −: poor; ∘: moderate; +: good; ++: very good; +++: excellent; for Mouse PK De-fluorination (grade): key: −: poor; ∘: moderate; +: good; ++: very good; +++: excellent; for Mouse PK Washout (grade): key: −: poor; ∘: moderate; +: good; ++: very good; +++: excellent
Description: NMRI mice (weight range 25-35 g) were injected intravenously with the ^18F-labeled compounds. Up to 150 μL of 1×PBS solution with 10%-15% EtOH or dilution medium ([…]) containing the ^18F-labeled compound (2-10 MBq) were injected. Anesthesia with isoflurane was induced before injection of the tracer and maintained during the image acquisition period. PET scans were performed using a SIEMENS INVEON small animal PET/CT scanner (Siemens, Knoxville, Tenn.). PET acquisition was started immediately before the radioactive dose was injected into the animal through the tail vein. Images were generated as dynamic scans for 60 minutes.
The peak uptake in the brain was set to 100% and washout curves were generated to evaluate the clearance of the activity from the normal brain (FIG. 2).

Structure (SMILES)	binding affinity for Tau (in words) (Tau)	high Tau binding (grade) (Tau)	low MAO A binding (grade) (MAO A)	Mouse PK Uptake (grade) [1]	Mouse PK Washout (grade) [1]	bone uptake in shoulder joint at 60 min (de-fluorination) [1]	peak uptake in brain (tracer uptake in healthy mice after iv injection) [1]	ratio of uptake peak/30 min (washout from healthy brain) [1]	Mouse PK De-fluorination (grade) [1]	Good brain uptake (grade) ([1]; Table 1)	Low retention in healthy brain (grade) ([1]; Table 1)	selectivity over MAO A (in words) (MAO A)	Fast washout from healthy brain (grade) ([1]; Table 1)	Low or minor de-fluorination (grade) ([1]; Table 1)	De-fluorination in mice (in words) ([1]; mouse, in vivo)
Fc1ccncc1-c1ccc2c(n1)[nH]c1ccncc12 [Comparative Example 6 (F-6)]	poor	−	+++	+++	++	(4.8% ID/g)	(8.2% ID/g)	(14.5)							
Fc1cccnc1-c1ccc2c(n1)[nH]c1ccncc12 [Comparative Example 10 (F-10)]	poor	−	+++		−	(6.2% ID/g)	(2.1% ID/g)	(3.6)	−						
[18F]c1ccc(-c2ccc3c(c2)[nH]c2ccncc23)cn1 [Compound ^18F-1]										++	−				
Fc1ccc(-c2ccc3c(n2)[nH]c2ccncc23)cn1 [Compound F-2]		+++	+	++	++	(6.2% ID/g)	(5.7% ID/g)	(10.9)	−			Inferior			
Fc1ccnc(-c2ccc3c(n2)[nH]c2ccncc23)c1 [Comparative Example 9 (F-9)]	inferior	++	+++												
Fc1cncc(-c2ccc3c(n2)[nH]c2ccncc23)c1 [Comparative Example 5 (F-5)]	inferior	++	+++	++	+	(2.9% ID/g)	(5.3% ID/g)	(9.6)	+						
Fc1ccc(-c2ccc3c(n2)[nH]c2ccncc23)nc1 [Comparative Example 8 (F-8)]		+++										Inferior			
Fc1cccc(-c2ccc3c(n2)[nH]c2ccncc23)n1 [Comparative Example 7 (F-7)]	inferior	++	+	+++		(11.1% ID/g)	(8.5% ID/g)	(7.0)	−			Inferior			
[18F]c1ccc(-c2ccc3c(n2)[nH]c2ccncc23)cn1 [Compound ^18F-2]										++			+	−	De-fluorination in mice was found
